Consider three compounds from ChEMBL document CHEMBL4007440, “Development of the First Generation of Disulfide-Based Subtype-Selective and Potent Covalent Pyruvate Dehydrogenase Kinase 1 (PDK1) Inhibitors” (J Med Chem, 2017).

Data set [1] concerns the target T1, [Pyruvate dehydrogenase (acetyl-transferring)] kinase isozyme 1, mitochondrial (Homo sapiens, UniProt Q15118). Briefly: Inhibition of PDK1 in human A549 cells assessed as reduction in phosphorylation of PDHE1 at S293 residue after 24 hrs by chemiluminescence/femtochemiluminescence method. Format: cell-based.
The target in data set [2] is T1, [Pyruvate dehydrogenase (acetyl-transferring)] kinase isozyme 1, mitochondrial. Briefly: Inhibition of PDK1 in human A549 cells assessed as reduction in phosphorylation of PDHE1 at S232 residue at 10 uM after 24 hrs by chemiluminescence/femtochemiluminescence method. Format: cell-based.
For data set [3] the target is unchanged. Briefly: Inhibition of PDK1 in human A549 cells assessed as reduction in extracellular acidification rate after 24 hrs by fluorescent biosensor based assay. Format: cell-based.
Data set [4] concerns A549. Briefly: Antitumor activity against human A549 cells xenografted in BALB/c nude mouse assessed as tumor growth inhibition at 80 mg/kg, ip for 21 days measured on day 21 post dose relative to control. The data set is classed as functional. The note with it: 504 h, read-out: TGI.
Data set [5] has as its target T1, [Pyruvate dehydrogenase (acetyl-transferring)] kinase isozyme 1, mitochondrial. Briefly: Inhibition of PDK1 in human A549 cells assessed as reduction in phosphorylation of PDHE1 at S293 residue at 10 uM after 24 hrs by chemiluminescence/femtochemiluminescence method. The data set is classed as cell-based.
For data set [6] the target is unchanged. Briefly: Inhibition of full length His6-tagged PDK1 (unknown origin) expressed in Escherichia coli using full length His6-tagged PDHA1 as substrate after 30 mins by ELISA. A general note: An ELISA detects its analyte on a solid surface through an enzyme-linked reagent.
Data set [7] shares this target. In words: Inhibition of PDK1 in human A549 cells assessed as reduction in phosphorylation of PDHE1 at S232 residue at 1 uM after 24 hrs by chemiluminescence/femtochemiluminescence method. Format: cell-based.
Data set [8] is described as follows: Antiproliferative activity against human Kelly cells after 72 hrs by CCK8 assay.
A further data set concerns L02. In words: Antiproliferative activity against human LO2 cells after 72 hrs by CCK8 assay. The following applies: L02, 72 h. Format: cell-based. (Tetrazolium dyes change colour on reduction, which living cells bring about.)
Data set [9] deals with T1, [Pyruvate dehydrogenase (acetyl-transferring)] kinase isozyme 1, mitochondrial. Briefly: Inhibition of PDK1 in human A549 cells assessed as increase in reactive oxygen species after 24 hrs by dihydroethidium staining based FACS analysis. The data set is classed as cell-based. On the technique in general: A flow cytometer gives signals particle by particle.
Data set [10] has as its target T2, [Pyruvate dehydrogenase (acetyl-transferring)] kinase isozyme 4, mitochondrial (Homo sapiens, UniProt Q16654). Briefly: Inhibition of PDK4 (unknown origin) at 10 uM using full length His6-tagged PDHA1 as substrate after 30 mins by ELISA.
Target sequence in this assay (Q16654 whole entry, looked up): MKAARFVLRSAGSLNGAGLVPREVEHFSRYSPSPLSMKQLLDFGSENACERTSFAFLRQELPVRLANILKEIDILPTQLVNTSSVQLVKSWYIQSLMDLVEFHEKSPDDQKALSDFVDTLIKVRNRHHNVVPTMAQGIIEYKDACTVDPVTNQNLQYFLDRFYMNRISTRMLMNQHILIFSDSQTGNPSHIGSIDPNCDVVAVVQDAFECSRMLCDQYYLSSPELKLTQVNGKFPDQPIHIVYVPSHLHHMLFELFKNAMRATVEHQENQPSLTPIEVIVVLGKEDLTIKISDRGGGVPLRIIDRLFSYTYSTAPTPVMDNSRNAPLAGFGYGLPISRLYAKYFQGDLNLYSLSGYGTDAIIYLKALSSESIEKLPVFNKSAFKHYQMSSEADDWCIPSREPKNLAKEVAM
The test system of a further data set is Mus musculus. Briefly: Toxicity in BALB/c nude mouse assessed as body weight loss at 40 to 80 mg/kg, ip for 21 days. The data set is classed as organism-based. The note with it: in vivo, 504 h.
Data set [11] concerns the target T1, [Pyruvate dehydrogenase (acetyl-transferring)] kinase isozyme 1, mitochondrial. In words: Inhibition of full length His6-tagged PDK1 (unknown origin) expressed in Escherichia coli using full length His6-tagged PDHA1 as substrate in presence of GSH after 30 mins by ELISA.
Data set [12] addresses [Pyruvate dehydrogenase (acetyl-transferring)] kinase isozyme 2, mitochondrial (Homo sapiens, UniProt Q15119). Briefly: Inhibition of PDK2 (unknown origin) using full length His6-tagged PDHA1 as substrate after 30 mins by ELISA.
In data set [13] the target is T1, [Pyruvate dehydrogenase (acetyl-transferring)] kinase isozyme 1, mitochondrial. Briefly: Inhibition of PDK1 in human A549 cells assessed as reduction in phosphorylation of PDHE1 at S232 residue after 24 hrs by chemiluminescence/femtochemiluminescence method. The data set is classed as cell-based.
Data set [14] relates to A549. Briefly: Antitumor activity against human A549 cells xenografted in BALB/c nude mouse assessed as reduction in tumor weight at 40 to 80 mg/kg, ip for 21 days measured on day 21 post dose. The data set is classed as functional, organism-based.
Data set [15] in a line: Antiproliferative activity against human GM00637 cells after 72 hrs by CCK8 assay. Format: cell-based. The following applies: GM00637, 72 h.
Data set [16] concerns A549. In words: cells. The note with it: Homo sapiens, A549, 72 h.
Description: Antiproliferative activity against human A549 cells after 72 hrs by CCK8 assay
Data set [17] deals with T1, [Pyruvate dehydrogenase (acetyl-transferring)] kinase isozyme 1, mitochondrial. In words: Inhibition of PDK1 in human A549 cells assessed as reduction in phosphorylation of PDHE1 at S293 residue at 1 uM after 24 hrs by chemiluminescence/femtochemiluminescence method. The data set is classed as cell-based.
In data set [18] the test system is A549. In words: Antitumor activity against human A549 cells xenografted in BALB/c nude mouse assessed as tumor growth inhibition at 40 mg/kg, ip for 21 days measured on day 21 post dose relative to control. The note with it: 504 h, read-out: TGI. Format: functional.
Data set [19] concerns the target [Pyruvate dehydrogenase (acetyl-transferring)] kinase isozyme 3, mitochondrial (Homo sapiens, UniProt Q15120). In words: Inhibition of PDK3 (unknown origin) using full length His6-tagged PDHA1 as substrate after 30 mins by ELISA.
Data set [20] deals with T2, [Pyruvate dehydrogenase (acetyl-transferring)] kinase isozyme 4, mitochondrial. In words: Inhibition of PDK4 (unknown origin) using full length His6-tagged PDHA1 as substrate after 30 mins by ELISA.
Target sequence in this assay (Q16654 whole entry): as the sequence (Q16654 whole entry, looked up) above

The source made the active and inactive calls. The calls are words filed in the database; no cut-off is given here.

For orientation: IC50 means the concentration that inhibits the measured activity by half. High values mean weaker potency in that assay, low ones greater potency in that assay. As usually defined, the Ki is the dissociation constant of the complex between target and ligand, obtained from inhibition or displacement. High values mean lower affinity, low ones higher affinity.

T1 sequence (Q15118 whole entry): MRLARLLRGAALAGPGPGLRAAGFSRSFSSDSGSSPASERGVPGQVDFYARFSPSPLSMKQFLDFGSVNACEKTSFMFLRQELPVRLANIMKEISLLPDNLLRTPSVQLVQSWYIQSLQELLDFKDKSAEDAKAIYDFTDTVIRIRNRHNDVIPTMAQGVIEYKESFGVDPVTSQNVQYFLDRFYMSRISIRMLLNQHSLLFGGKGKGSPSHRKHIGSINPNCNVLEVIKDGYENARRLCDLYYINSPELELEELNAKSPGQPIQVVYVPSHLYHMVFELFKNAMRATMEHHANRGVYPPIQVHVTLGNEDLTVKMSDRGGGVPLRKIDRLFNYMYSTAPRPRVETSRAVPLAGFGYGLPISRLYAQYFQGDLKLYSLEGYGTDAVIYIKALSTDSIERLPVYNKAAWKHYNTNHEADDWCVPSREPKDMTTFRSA
Chain of [Pyruvate dehydrogenase (acetyl-transferring)] kinase isozyme 3, mitochondrial (Q15120 whole entry): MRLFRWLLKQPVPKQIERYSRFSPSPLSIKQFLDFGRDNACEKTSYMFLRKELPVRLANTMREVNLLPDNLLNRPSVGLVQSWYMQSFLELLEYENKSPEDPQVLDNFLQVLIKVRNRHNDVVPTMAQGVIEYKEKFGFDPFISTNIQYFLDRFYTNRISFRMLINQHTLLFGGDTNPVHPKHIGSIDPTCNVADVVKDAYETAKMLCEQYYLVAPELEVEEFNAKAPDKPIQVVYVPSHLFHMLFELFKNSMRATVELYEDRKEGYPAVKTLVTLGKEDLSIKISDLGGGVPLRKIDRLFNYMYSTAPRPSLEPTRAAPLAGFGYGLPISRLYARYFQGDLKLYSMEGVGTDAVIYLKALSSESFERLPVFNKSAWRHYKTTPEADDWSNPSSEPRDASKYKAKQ

With `S=C(SSC(=S)N1CCCOCC1)N1CCCOCC1`, the inhibition entry in data set [1], in [3], in data set [9] and in [13] was “Dose-dependent effect” throughout. Moreover, the inhibition entry in data set [2], in [5], in data set [7] and in data set [17] was “Active” in each case. Moreover, the inhibition in vivo at 80 mg/kg in the data set on A549 [4] worked out at 47.8%. Further, the IC50 was 0.026 µM in [6]; 0.057 µM in data set [8]; more than 10 µM in the data set with L02; more than 10 µM in data set [15]; 0.225 µM with A549 [16]. The values for the Ki in [6], in data set [12] and in data set [19] were 0.109 µM, 1.28 µM and 7.76 µM, respectively. The inhibition entry in data set [10] and in [11] was “inactive” throughout. The Activity result with Mus musculus is listed as “Non-Toxic”. Besides, in the data set with A549 [14], the result was Active. The inhibition in vivo at 40 mg/kg with A549 [18] is 26.2%.
On to `O=C(O)C(Cl)Cl` [DICHLOROACETIC ACID], for which the IC50 in data set [8] is 11100 µM; in data set [20], 727 µM; with L02, more than 15000 µM; in [12], 504 µM; in data set [15], 13800 µM; in [19], 5560 µM. Besides, the inhibition result in [11] was “Active”.
As for `S=C(SSC(=S)N1CCOCC1)N1CCOCC1`, the inhibition result in [1], in data set [3], in [9] and in data set [13] was “Dose-dependent effect” each time. Also, the inhibition in vivo at 80 mg/kg with A549 [4] is 50.4%. Also, the IC50 was 0.049 µM in data set [6]; 0.289 µM in data set [8]; more than 10 µM with L02; more than 10 µM in data set [15]; 0.48 µM with A549 [16]. Also, the values for the Ki in data set [6], in data set [12] and in data set [19] were 0.462 µM, 0.176 µM and 2.85 µM, respectively. Moreover, the inhibition result in data set [10] and in data set [11] was “inactive” throughout. In addition, the Activity entry in the data set on Mus musculus is given as “Non-Toxic”. The result in the data set with A549 [14] was Active. The inhibition in vivo at 40 mg/kg in the data set on A549 [18] is 27.7%.
